Reference: PubChem BioAssay (NCI)
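Interpolation was linear, between the two tested concentrations surrounding the appropriate level; five concentrations were tested over 48 hours in 96-well plates. TGI: total growth inhibition.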

Experiments:
Experiment in all cases: DTP human tumour cell line panel, 48 h
786-0 renal = system: 786-0 renal
A498 renal = system: A498 renal
A549 NSCLC = system: A549 NSCLC
ACHN renal = system: ACHN renal
CAKI-1 renal = system: CAKI-1 renal
COLO 205 colon = system: COLO 205 colon
DLD-1 colon = system: DLD-1 colon
DMS 114 small cell lung = system: DMS 114 small cell lung
DMS 273 small cell lung = system: DMS 273 small cell lung
EKVX NSCLC = system: EKVX NSCLC
HCT-116 colon = system: HCT-116 colon
HCT-15 colon = system: HCT-15 colon
HOP-18 NSCLC = system: HOP-18 NSCLC
HOP-62 NSCLC = system: HOP-62 NSCLC
HOP-92 NSCLC = system: HOP-92 NSCLC
HT29 colon = system: HT29 colon
IGROV1 ovarian = system: IGROV1 ovarian
K-562 leukemia = system: K-562 leukemia
KM12 colon = system: KM12 colon
KM20L2 colon = system: KM20L2 colon
LOX IMVI melanoma = system: LOX IMVI melanoma
M19-MEL melanoma = system: M19-MEL melanoma
MALME-3M melanoma = system: MALME-3M melanoma
NCI-H23 lung = system: NCI-H23 lung
NCI-H460 lung = system: NCI-H460 lung
OVCAR-3 ovarian = system: OVCAR-3 ovarian
OVCAR-4 ovarian = system: OVCAR-4 ovarian
OVCAR-5 ovarian = system: OVCAR-5 ovarian
OVCAR-8 ovarian = system: OVCAR-8 ovarian
RPMI-8226 leukemia = system: RPMI-8226 leukemia
RXF 393 renal = system: RXF 393 renal
SF-268 CNS = system: SF-268 CNS
SF-295 CNS = system: SF-295 CNS
SF-539 CNS = system: SF-539 CNS
SK-MEL-2 melanoma = system: SK-MEL-2 melanoma
SK-MEL-28 melanoma = system: SK-MEL-28 melanoma
SK-MEL-5 melanoma = system: SK-MEL-5 melanoma
SN12C renal = system: SN12C renal
SNB-19 CNS = system: SNB-19 CNS
SNB-75 CNS = system: SNB-75 CNS
SNB-78 CNS = system: SNB-78 CNS
SR leukemia = system: SR leukemia
SW-620 colon = system: SW-620 colon
TK-10 renal = system: TK-10 renal
U251 CNS = system: U251 CNS
UACC-257 melanoma = system: UACC-257 melanoma
UACC-62 melanoma = system: UACC-62 melanoma
XF 498 CNS = system: XF 498 CNS
CCRF-CEM leukemia = system: CCRF-CEM leukemia
HCC-2998 colon = system: HCC-2998 colon
HL-60(TB) leukemia = system: HL-60(TB) leukemia
LXFL 529 NSCLC = system: LXFL 529 NSCLC
M14 melanoma = system: M14 melanoma
MOLT-4 leukemia = system: MOLT-4 leukemia
NCI-H522 lung = system: NCI-H522 lung
UO-31 renal = system: UO-31 renal
SK-OV-3 ovarian = system: SK-OV-3 ovarian

Measured: TGI

CCC1=NC(CO)[C@H](c2ccccc2)O1 (some centres not stated)
not listed: CCRF-CEM leukemia | HCC-2998 colon | HL-60(TB) leukemia | LXFL 529 NSCLC | M14 melanoma | MOLT-4 leukemia | NCI-H522 lung | UO-31 renal | SK-OV-3 ovarian
> 100 µM: all other assays above

Cc1cccc(C)c1NC(=O)C1C(=O)N(c2c(C)cccc2C)C(=O)/C1=N\NC(N)=S (configuration not stated)
not listed: CAKI-1 renal | COLO 205 colon | DMS 273 small cell lung | LOX IMVI melanoma | SNB-75 CNS | SR leukemia | XF 498 CNS | SK-OV-3 ovarian
> 100 µM: all other assays above

CCC1=C(C(C)=O)[C@@H]2CCCCC[C@@H](C(=O)OC)C2C1=O (some centres not stated)
not listed: LOX IMVI melanoma | OVCAR-3 ovarian
> 100 µM: all other assays above

CCOC(=O)c1cc(/C=C/C(C)=C/C(=O)OC)oc1C
not listed: A498 renal | DMS 273 small cell lung | HOP-18 NSCLC | RXF 393 renal | SK-MEL-5 melanoma | SN12C renal | HCC-2998 colon
> 100 µM: all other assays above
